How the values were obtained:
[1] = biological target: T1, Ret (V804M) (h) (Homo sapiens, UniProt P07949, V804M); assay: Radioisotope labeling kinase assay (Eurofins), Ret (V804M); format: biochemical
T1 construct: purchased Eurofins
Protocol: An activity to a human recombinant protein kinase of a series of compounds was determined by a radioisotope labeling method, which was provided by Eurofins Company. A compound to be detected was mixed with a corresponding protein kinase buffer (20 mM propyl sulfonate (MOPS, […].), 1 mM EDTA, 0.10 β-mercaptoethanol, 0.010 Brij-35, […], and 1 mg/mL BSA), the mixture was added into a reaction system (100 μM reaction substrate […], 8 mM MOPS with a pH value of 7.0, 10 mM MgAcetate, 0.2 mM EDTA, and a certain concentration of γ-^33P-ATP). After adding an MgATP composite solution, the reaction was started at room temperature for 40 minutes, and the reaction was terminated by adding 5 μl of […] solution. Then, 10 μl of reaction solution was dropwise added onto a filter and washed with 75 mM phosphoric acid solution for three times, 5 minutes each time, then washed with methanol once again, and dried and subjected to scintillation counting.

[2] = test system: MGC-803 Human gastric cancer cells; assay: MTT cell proliferation inhibition, MGC-803; format: cell-based; settings: MGC-803, 72 hours
Protocol: (§1) Human cancer cells were purchased from ATCC. The cells were cultured in a culture medium according to the work instruction of ATCC. A dose-response curve was drawn by XL-fitting to determine an IC50 value of a compound. […] Cell proliferation inhibition could be detected by a MTT method (3-(4,5-Dimethylthiazol-2-yl)-2,5-diphenyltetrazolium bromide, and MTT; and 3-(4,5-dimethyl thiazole-2)-2,5-diphenyltertazolium bromide, and thiazolyl blue).
(§2) The cells were cultured in a culture dish first, and the cells in a logarithmic growth phase were inoculated into a 96-well plate (3,000 to 5,000 adherent cells/well, 10,000 to 30,000 suspended cells/well) according to a specific number, with 100 microliters per well, and then cultured in an incubator of 5% CO2 and 37° C. […] An absorbance of a general control group should be a normal value between 0.8 and 1.2. After obtaining absorbance data, a change curve of an inhibition rate was fitted by GraphPad Prism6.03 software and an IC50 value was calculated.
(§3) Calculation of drug inhibition rate: relative cell proliferation inhibition rate=[(control group A570−experimental group A570)/control group […], wherein A570 represented the absorbance at 570 nm.

[3] = test system: HL-60 Human acute myelogenous leukemia; assay: MTT cell proliferation inhibition, HL-60; format: cell-based; settings: HL-60, 72 hours
Protocol: as §1, §2, §3

[4] = test system: K562 Human acute myelogenous leukemia; assay: MTT cell proliferation inhibition, K562; format: cell-based; settings: K562, 72 hours
Protocol: as §1, §2, §3

[5] = test system: MM1S Human myeloma cells; assay: MTT cell proliferation inhibition, MM1S; format: cell-based; settings: MM1.S, 72 hours
Protocol: as §1, §2, §3

[6] = test system: Aspc-1 Human pancreatic cancer cells; assay: MTT cell proliferation inhibition, Aspc-1; format: cell-based; settings: ASPC1, Aspc-1, 72 hours
Protocol: as §1, §2, §3

T1 sequence (P07949 29-1114 V804M): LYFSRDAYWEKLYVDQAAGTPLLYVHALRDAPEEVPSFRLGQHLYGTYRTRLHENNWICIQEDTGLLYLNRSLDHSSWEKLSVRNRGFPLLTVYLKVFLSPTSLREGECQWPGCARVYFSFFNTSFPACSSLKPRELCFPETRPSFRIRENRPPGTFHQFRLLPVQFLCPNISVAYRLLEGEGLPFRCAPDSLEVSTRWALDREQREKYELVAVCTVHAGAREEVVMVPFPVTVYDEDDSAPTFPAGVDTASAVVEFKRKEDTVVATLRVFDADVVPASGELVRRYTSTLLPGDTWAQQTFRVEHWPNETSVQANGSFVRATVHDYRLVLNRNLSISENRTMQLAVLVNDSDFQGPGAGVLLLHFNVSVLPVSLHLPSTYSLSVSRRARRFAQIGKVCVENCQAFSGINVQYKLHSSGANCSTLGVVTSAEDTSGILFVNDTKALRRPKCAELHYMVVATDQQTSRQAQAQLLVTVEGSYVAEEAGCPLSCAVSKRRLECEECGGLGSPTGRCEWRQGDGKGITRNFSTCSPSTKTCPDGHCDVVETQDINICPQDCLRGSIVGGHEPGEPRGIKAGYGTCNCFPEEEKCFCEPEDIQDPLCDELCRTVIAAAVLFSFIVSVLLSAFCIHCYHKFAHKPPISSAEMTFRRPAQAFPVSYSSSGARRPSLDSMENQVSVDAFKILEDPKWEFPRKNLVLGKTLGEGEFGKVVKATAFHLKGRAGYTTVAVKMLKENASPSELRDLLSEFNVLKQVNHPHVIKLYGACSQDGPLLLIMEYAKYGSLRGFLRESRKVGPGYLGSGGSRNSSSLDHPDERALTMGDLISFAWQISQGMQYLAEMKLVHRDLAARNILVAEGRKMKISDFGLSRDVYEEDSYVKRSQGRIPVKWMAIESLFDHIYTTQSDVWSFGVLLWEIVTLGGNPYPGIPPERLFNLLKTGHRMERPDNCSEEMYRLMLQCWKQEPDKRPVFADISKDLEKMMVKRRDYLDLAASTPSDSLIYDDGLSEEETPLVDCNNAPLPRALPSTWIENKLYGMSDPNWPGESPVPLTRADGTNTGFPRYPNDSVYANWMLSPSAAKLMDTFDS

Structure (SMILES): C1=C/COCc2cccc(c2)-c2ccnc(n2)Nc2cc(cc(OC/C=C/CN3CCCC3)c2)COC/1 [XVI-12]
- IC50 [1]: 122 nM

Structure (SMILES): O=C(/C=C/CN1CCOCC1)Nc1cc2cc(c1)Nc1nccc(n1)-c1cccc(c1)COC/C=C/COC2 [XVI-3]
- IC50 [2]: 2760 nM
- IC50 [3]: 866 nM
- IC50 [4]: 2880 nM
- IC50 [5]: 379 nM
- IC50 [6]: 2480 nM

Structure (SMILES): O=C(/C=C/CN1CCCC1)Nc1cc2cc(c1)Nc1nccc(n1)-c1cccc(c1)COC/C=C/COC2 [XVI-1]
- IC50 [2]: 573 nM
- IC50 [3]: 326 nM
- IC50 [4]: 470 nM
- IC50 [5]: 92 nM
- IC50 [6]: 689 nM

Source: patent US20240425518A1, “N-MACROCYCLIC AMIDE COMPOUNDS, PREPARATION METHODS THEREOF AND APPLICATIONS THEREOF AS MEDICAMENTS” (Chengdu FANXI Biopharma Co., Ltd., priority 2023, published 2024)
